Data as given in PubChem BioAssay (NCI).
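Grown in 96-well plates, cells were treated for 48 hours with each compound at five concentrations. Insufficient inhibition: endpoint recorded as highest concentration tested. GI50 marks 50% less growth. TGI denotes the concentration required for complete inhibition of growth.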 *1 amine or outer side, *2 acyl side, *3 side chain or, on linkers, in order; H or OH if unused. Where a SMILES comes first, the peptide text is derived from it. Bridges are numbered along the chain shown (N, C = ends). [ ]: non-standard residue; d: D form. The star is where a group is joined. Phe(3-F) = N[C@@H](Cc1cccc(F)c1)C(=O)O; Pro(4R-Me) = C[C@H]1CN[C@H](C(=O)O)C1; aThr = C[C@H](O)[C@H](N)C(=O)O; Pip = O=C(O)[C@@H]1CCCCN1; X8 = CCc1ccc(N*)c(F)c1; CO = O=C([*:1])[*:2]

What was measured:
Assay in all cases: growth of human tumour cells (NCI), 48 h
[1] = test system: HL-60(TB) leukemia
[2] = test system: BT-549 breast
[3] = test system: MCF7 breast
[4] = test system: A498 renal
[5] = test system: CAKI-1 renal
[6] = test system: IGROV1 ovarian
[7] = test system: PC-3 prostate
[8] = test system: SF-268 CNS
[9] = test system: SK-MEL-5 melanoma
[10] = test system: OVCAR-8 ovarian
[11] = test system: OVCAR-4 ovarian
[12] = test system: UACC-62 melanoma
[13] = test system: SW-620 colon
[14] = test system: OVCAR-3 ovarian
[15] = test system: UO-31 renal
[16] = test system: HCT-116 colon
[17] = test system: NCI-H460 lung
[18] = test system: MOLT-4 leukemia
[19] = test system: NCI-H522 lung
[20] = test system: TK-10 renal
[21] = test system: RXF 393 renal
[22] = test system: SK-MEL-2 melanoma
[23] = test system: LOX IMVI melanoma
[24] = test system: RPMI-8226 leukemia
[25] = test system: HOP-62 NSCLC
[26] = test system: SN12C renal
[27] = test system: T-47D breast
[28] = test system: A549 NSCLC
[29] = test system: MDA-MB-231 breast
[30] = test system: KM12 colon
[31] = test system: SK-OV-3 ovarian
[32] = test system: NCI/ADR-RES ovarian
[33] = test system: UACC-257 melanoma
[34] = test system: MDA-MB-435
[35] = test system: NCI-H23 lung
[36] = test system: SR leukemia
[37] = test system: 786-0 renal
[38] = test system: M14 melanoma
[39] = test system: DU-145 prostate
[40] = test system: SNB-19 CNS
[41] = test system: HS 578T breast
[42] = test system: NCI-H226 lung
[43] = test system: EKVX NSCLC
[44] = test system: HOP-92 NSCLC
[45] = test system: HT29 colon
[46] = test system: SF-539 CNS
[47] = test system: COLO 205 colon
[48] = test system: SNB-75 CNS
[49] = test system: SF-295 CNS
[50] = test system: U251 CNS
[51] = test system: SK-MEL-28 melanoma
[52] = test system: OVCAR-5 ovarian
[53] = test system: ACHN renal
[54] = test system: MALME-3M melanoma
[55] = test system: CCRF-CEM leukemia
[56] = test system: K-562 leukemia
[57] = test system: HCC-2998 colon
[58] = test system: HCT-15 colon

Compound: CCc1ccc(NC(=O)N[C@@H](Cc2cccc(F)c2)C(=O)N[C@@H]2C(=O)N3CCC[C@H]3C(=O)N3CCCC[C@H]3C(=O)N[C@@H](C)C(=O)N3C[C@H](C)C[C@H]3C(=O)O[C@H]2C)c(F)c1 ({X8-CO}-[Phe(3-F)][aThr]P[Pip]A[Pro(4R-Me)]; ester 2-C)
- GI50 [1]: 135 nM
- TGI [1]: 1700 nM
- GI50 [2]: 199 nM
- TGI [2]: 2800 nM
- GI50 [3]: 272 nM
- TGI [3]: 19300 nM
- GI50 [4]: 616 nM
- TGI [4]: 7340 nM
- GI50 [5]: 296 nM
- TGI [5]: 13500 nM
- GI50 [6]: 614 nM
- TGI [6]: > 47700 nM
- GI50 [7]: 191 nM
- TGI [7]: > 100000 nM
- GI50 [8]: 463 nM
- TGI [8]: 53400 nM
- GI50 [9]: 354 nM
- TGI [9]: 1570 nM
- GI50 [10]: 145 nM
- TGI [10]: > 100000 nM
- GI50 [11]: 163 nM
- TGI [11]: > 19900 nM
- GI50 [12]: 369 nM
- TGI [12]: 10100 nM
- GI50 [13]: 486 nM
- TGI [13]: > 60700 nM
- GI50 [14]: 337 nM
- TGI [14]: 6870 nM
- GI50 [15]: 377 nM
- TGI [15]: 16500 nM
- GI50 [16]: 60.4 nM
- TGI [16]: 2620 nM
- GI50 [17]: 262 nM
- TGI [17]: 12900 nM
- GI50 [18]: 594 nM
- TGI [18]: 18100 nM
- GI50 [19]: 182 nM
- TGI [19]: 6820 nM
- GI50 [20]: 608 nM
- TGI [20]: 29100 nM
- GI50 [21]: 948 nM
- TGI [21]: 7960 nM
- GI50 [22]: 243 nM
- TGI [22]: 2020 nM
- GI50 [23]: 369 nM
- TGI [23]: 16200 nM
- GI50 [24]: 55.3 nM
- TGI [24]: 4340 nM
- GI50 [25]: 562 nM
- TGI [25]: > 53200 nM
- GI50 [26]: 294 nM
- TGI [26]: > 57300 nM
- GI50 [27]: 337 nM
- TGI [27]: 18900 nM
- GI50 [28]: 509 nM
- TGI [28]: > 79500 nM
- GI50 [29]: 283 nM
- TGI [29]: 2270 nM
- GI50 [30]: 919 nM
- TGI [30]: 18000 nM
- GI50 [31]: 583 nM
- GI50 [32]: 962 nM
- TGI [32]: > 51200 nM
- GI50 [33]: 319 nM
- TGI [33]: 5320 nM
- GI50 [34]: 183 nM
- TGI [34]: 6010 nM
- GI50 [35]: 425 nM
- TGI [35]: 20200 nM
- GI50 [36]: 380 nM
- TGI [36]: 10200 nM
- GI50 [37]: 421 nM
- TGI [37]: 75200 nM
- GI50 [38]: 214 nM
- TGI [38]: 2090 nM
- GI50 [39]: 285 nM
- TGI [39]: > 100000 nM
- GI50 [40]: 218 nM
- TGI [40]: > 82900 nM
- GI50 [41]: 264 nM
- TGI [41]: 4580 nM
- GI50 [42]: 351 nM
- TGI [42]: 5230 nM
- GI50 [43]: 367 nM
- TGI [43]: > 58100 nM
- GI50 [44]: 380 nM
- TGI [44]: 6750 nM
- GI50 [45]: 352 nM
- TGI [45]: 2750 nM
- GI50 [46]: 541 nM
- TGI [46]: 12600 nM
- GI50 [47]: 180 nM
- TGI [47]: 511 nM
- GI50 [48]: 202 nM
- TGI [48]: 3590 nM
- GI50 [49]: 270 nM
- TGI [49]: 1710 nM
- GI50 [50]: 318 nM
- TGI [50]: 31800 nM
- GI50 [51]: 589 nM
- TGI [51]: 13100 nM
- GI50 [52]: 439 nM
- TGI [52]: 4660 nM
- GI50 [53]: 503 nM
- TGI [53]: > 53700 nM
- GI50 [54]: 464 nM
- TGI [54]: 11400 nM
- GI50 [55]: 252 nM
- TGI [55]: 29900 nM
- GI50 [56]: 52.6 nM
- TGI [56]: > 56200 nM
- GI50 [57]: 353 nM
- TGI [57]: 2710 nM
- GI50 [58]: 347 nM
- TGI [58]: 7220 nM
